In US10517889B2, “Modulators of SMAD7 expression” (Ionis Pharmaceuticals, Inc., priority 2017, dated 2019):

Experiments:
[1] = test system: human peripheral blood mononuclear cells (PBMCs); assay: Human PBMC activation assay, cytokine levels (IL-10, IL-6, MCP-1, TNF-α) in supernatant after 24 hours (Example 9); conditions: human PBMC supernatant after 24 hours
Procedure: Ionis SMAD7 oligonucleotides were tested in an in vitro assay for potential immunostimulatory properties in an in vitro human peripheral blood mononuclear cell (PBMC) activation assay.
Blood samples were collected from healthy human volunteers in heparinized vials and mixed well. Human PBMCs were isolated by gradient centrifugation using Ficoll-Histopaque. The cells were washed, counted and resuspended in medium. The PBMCs were plated in a 24-well culture plate and various concentrations of oligonucleotides were added to the media. An oligonucleotide historically known to promote an inflammatory response was used as a positive control, whereas an oligonucleotide known not to be pro-inflammatory was used as a negative control. […] The supernatants were collected after 24 hours and analyzed for cytokine levels using MSD platform.

[2] = Body and organ weights after subcutaneous administration in beagle dogs (Example 8); assay type: in vivo; conditions: 30 mg/kg subcutaneous days 1, 3, 5, 8, 15, 22, 29, end of study
Procedure: (§1) There were 4 animals per group.
Body weights as well as kidney, spleen, liver (with gall bladder), mesenteric lymph node, heart, and thymus weights were measured at the end of the study. […] Ionis SMAD7 oligonucleotides that caused any changes in organ weights outside the expected range for antisense oligonucleotides were excluded from further studies.

mouse Smad7 mRNA = assay: Pharmacology: mouse Smad7 mRNA expression in liver, kidney, duodenum, ileum and colon after subcutaneous administration in CD-1 mice (Example 6); assay type: in vivo; conditions: 50 mg/kg subcutaneous twice weekly for 7 weeks, normalized to GAPDH
How it was run: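 Male CD-1 mice, 8-9 weeks old, got 50 mg/kg oligonucleotide subcutaneously twice weekly (100 mg/kg/week) for 7 weeks, with PBS controls; n=4 per group. At necropsy, Smad7 mRNA in liver, kidney, duodenum, ileum and colon was measured by RT-PCR (probe set HTS7555), normalized to GAPDH; one-way ANOVA with Dunnett's test.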

[3] = Hematology assays after oral gavage in CD-1 mice (Example 7); assay type: in vivo; set-up: RBC: unit not given here; conditions: 500 mg/kg oral gavage once daily for 4 weeks
Procedure: (§2) Groups of 7-8 week old male CD-1 mice were given an oral gavage dose once daily for 4 weeks of 500 mg/kg of Ionis SMAD7 oligonucleotides. Each group contained 8 mice. One group of male CD-1 mice was administered saline by oral gavage daily.
Blood obtained from all mouse groups was measured by an ADVIA2120i hematology analyzer (Siemens, USA) for measurements of the various blood cells, as well as other hematology markers. None of the Ionis SMAD7 oligonucleotides caused changes in the levels of any of the hematology markers outside the expected range for antisense oligonucleotides.

[4] = Oligonucleotide concentration in tissues by LC-MS/MS after subcutaneous administration in beagle dogs (Example 8); assay type: in vivo; conditions: 30 mg/kg subcutaneous, 48 hours after the last dose
Procedure: as §1
Oligonucleotide concentrations of both ION 830025 and ION 798781 were detected in various tissues by LC-MS/MS analysis. The results are presented below, expressed as μg/g tissue. The data was collected 48 hours after the last dose.

[5] = Body and organ weights after oral gavage in CD-1 mice (Example 7); assay type: in vivo; conditions: 500 mg/kg oral gavage once daily for 4 weeks, end of study
Procedure: as §2
Final body weights were measured at the end of the study. There was no significant difference in the body weight of the mice treated with antisense oligonucleotide compared to the control.
None of the Ionis SMAD7 oligonucleotides caused any changes in organ weights outside the expected range for antisense oligonucleotides.

[6] = Blood chemistry markers after oral gavage in CD-1 mice (Example 7); assay type: in vivo; conditions: 500 mg/kg oral gavage once daily for 4 weeks, day 30
Procedure: The objective of this study was to evaluate the tolerability and pharmacodynamics of select Ionis human SMAD7 antisense oligonucleotides in CD-1 mice following 4 weeks of treatment. The mice were administered oligonucleotides by oral gavage.
as §2
Levels of transaminases, albumin, and BUN were measured using a Toshiba 200FR NEO chemistry analyzer (Toshiba Co., Japan).

[7] = Oligonucleotide concentration in liver and colon by LC-MS/MS after subcutaneous administration in CD-1 mice (Example 6); assay type: in vivo; conditions: 50 mg/kg subcutaneously twice a week for 7 weeks, 48 hours after the last dose
Procedure: Groups of 8-9 week old male CD-1 mice were injected subcutaneously twice a week for 7 weeks with 50 mg/kg of Ionis oligonucleotides (100 mg/kg/week dose). Each group contained 4 mice. One group of male CD-1 mice was injected subcutaneously twice a week for 7 weeks with PBS. Plasma was collected for analysis on day 28.
Oligonucleotide concentrations in the liver and colon were analyzed using LC-MS/MS method.

[8] = Plasma chemistry markers after subcutaneous administration in beagle dogs (Example 8); conditions: 30 mg/kg subcutaneous days 1, 3, 5, 8, 15, 22, 29, plasma at day 31

Substance: 830121 (AGAATCAAGCCCTGGC; 3-10-3 cEt gapmer, further chemistry not given here) [compound 830121]
- Levels of IL-6 ([1]; 0.0128 μM oligonucleotide): 4.1 pg/mL
- Levels of IL-10 ([1]; 0.0128 μM oligonucleotide): 2.0 pg/mL
- Levels of MCP-1 ([1]; 0.0128 μM oligonucleotide): 324.5 pg/mL
- Levels of TNF-α ([1]; 0.0128 μM oligonucleotide): 3.0 pg/mL
- Levels of IL-6 ([1]; 0.064 μM oligonucleotide): 4.9 pg/mL
- Levels of IL-10 ([1]; 0.064 μM oligonucleotide): 1.3 pg/mL
- Levels of MCP-1 ([1]; 0.064 μM oligonucleotide): 370.4 pg/mL
- Levels of TNF-α ([1]; 0.064 μM oligonucleotide): 3.5 pg/mL
- Levels of IL-6 ([1]; 0.32 μM oligonucleotide): 4.4 pg/mL
- Levels of IL-10 ([1]; 0.32 μM oligonucleotide): 1.3 pg/mL
- Levels of MCP-1 ([1]; 0.32 μM oligonucleotide): 336.4 pg/mL
- Levels of TNF-α ([1]; 0.32 μM oligonucleotide): 3.1 pg/mL
- Levels of IL-6 ([1]; 1.6 μM oligonucleotide): 5.4 pg/mL
- Levels of IL-10 ([1]; 1.6 μM oligonucleotide): 3.1 pg/mL
- Levels of MCP-1 ([1]; 1.6 μM oligonucleotide): 501.8 pg/mL
- Levels of TNF-α ([1]; 1.6 μM oligonucleotide): 3.6 pg/mL
- Levels of IL-6 ([1]; 8 μM oligonucleotide): 7.5 pg/mL
- Levels of IL-10 ([1]; 8 μM oligonucleotide): 3.7 pg/mL
- Levels of MCP-1 ([1]; 8 μM oligonucleotide): 717.1 pg/mL
- Levels of TNF-α ([1]; 8 μM oligonucleotide): 4.8 pg/mL
- Levels of IL-6 ([1]; 40 μM oligonucleotide): 14.3 pg/mL
- Levels of IL-10 ([1]; 40 μM oligonucleotide): 2.2 pg/mL
- Levels of MCP-1 ([1]; 40 μM oligonucleotide): 1225.2 pg/mL
- Levels of TNF-α ([1]; 40 μM oligonucleotide): 9.4 pg/mL
- Levels of IL-6 ([1]; 200 μM oligonucleotide): 35.2 pg/mL
- Levels of IL-10 ([1]; 200 μM oligonucleotide): 1.4 pg/mL
- Levels of MCP-1 ([1]; 200 μM oligonucleotide): 411.0 pg/mL
- Levels of TNF-α ([1]; 200 μM oligonucleotide): 14.2 pg/mL
- Body weight [2]: 6091 g
- Heart weight [2]: 52.6 g
- Kidney weight [2]: 40.0 g
- Liver weight [2]: 202.0 g
- Mesenteric LN weight [2]: 12.2 g
- Spleen weight [2]: 27.5 g
- Thymus weight [2]: 2.8 g
- % inhibition of Smad7 mRNA expression (compared to control), Kidney (mouse Smad7 mRNA): 0%
- % inhibition of Smad7 mRNA expression (compared to control), Liver (mouse Smad7 mRNA): 24%
- Basophils [3]: 0.01 10^3/μL
- Eosinophils [3]: 0.08 10^3/μL
- Hematocrit [3]: 51.8%
- Hemoglobin [3]: 15.1 g/dL
- Lymphocytes [3]: 81.7%
- MCH [3]: 15.0 pg
- MCHC [3]: 29.1 g/dL
- MCV [3]: 51.6 fL
- Monocytes [3]: 0.15 10^3/μL
- Neutrophils [3]: 11.6%
- RBC [3]: 10.0
- Reticulocytes [3]: 3.0%
- WBC [3]: 4.1 10^3/μL
- platelets [3]: 1170 10^3/μL
- Full length oligonucleotide, Distal colon [4]: 20 µg/g
- Full length oligonucleotide, Duodenum [4]: 26 µg/g
- Full length oligonucleotide, Ileum [4]: 26 µg/g
- Full length oligonucleotide, Kidney [4]: 1468 µg/g
- Full length oligonucleotide, Liver [4]: 443 µg/g
- Full length oligonucleotide, Proximal colon [4]: 19 µg/g
- Body weight [5]: 34 g
- Heart weight [5]: 0.17 g
- Kidneys weight [5]: 0.61 g
- Liver with gallbladder weight [5]: 1.92 g
- Spleen weight [5]: 0.10 g
- ALT [6]: 45 IU/L
- AST [6]: 75 IU/L
- Albumin [6]: 3.3 g/dL
- BUN [6]: 24 mg/dL
- Bilirubin [6]: 0.2 mg/dL
- Oligonucleotide concentration, Colon [7]: 14 μg/g tissue
- Oligonucleotide concentration, Liver [7]: 50 μg/g tissue
- ALT [8]: 1454 IU/L
- AST [8]: 383 IU/L
- Albumin [8]: 3.0 g/dL
- BUN [8]: 20.0 mg/dL
- Bilirubin [8]: 2.6 mg/dL
- Creatine [8]: 0.9 mg/dL

Substance: 790615 (CCAATGAGAATGCTTC; 3-10-3 cEt gapmer, further chemistry not given here) [compound 790615]
- Levels of IL-6 ([1]; 0.0128 μM oligonucleotide): 3.7 pg/mL
- Levels of IL-10 ([1]; 0.0128 μM oligonucleotide): 1.1 pg/mL
- Levels of MCP-1 ([1]; 0.0128 μM oligonucleotide): 329.5 pg/mL
- Levels of TNF-α ([1]; 0.0128 μM oligonucleotide): 3.1 pg/mL
- Levels of IL-6 ([1]; 0.064 μM oligonucleotide): 3.8 pg/mL
- Levels of IL-10 ([1]; 0.064 μM oligonucleotide): 1.6 pg/mL
- Levels of MCP-1 ([1]; 0.064 μM oligonucleotide): 281.8 pg/mL
- Levels of TNF-α ([1]; 0.064 μM oligonucleotide): 2.5 pg/mL
- Levels of IL-6 ([1]; 0.32 μM oligonucleotide): 6.5 pg/mL
- Levels of IL-10 ([1]; 0.32 μM oligonucleotide): 2.4 pg/mL
- Levels of MCP-1 ([1]; 0.32 μM oligonucleotide): 424.3 pg/mL
- Levels of TNF-α ([1]; 0.32 μM oligonucleotide): 3.4 pg/mL
- Levels of IL-6 ([1]; 1.6 μM oligonucleotide): 9.0 pg/mL
- Levels of IL-10 ([1]; 1.6 μM oligonucleotide): 3.1 pg/mL
- Levels of MCP-1 ([1]; 1.6 μM oligonucleotide): 495.8 pg/mL
- Levels of TNF-α ([1]; 1.6 μM oligonucleotide): 4.2 pg/mL
- Levels of IL-6 ([1]; 8 μM oligonucleotide): 10.0 pg/mL
- Levels of IL-10 ([1]; 8 μM oligonucleotide): 1.9 pg/mL
- Levels of MCP-1 ([1]; 8 μM oligonucleotide): 449.0 pg/mL
- Levels of TNF-α ([1]; 8 μM oligonucleotide): 4.8 pg/mL
- Levels of IL-6 ([1]; 40 μM oligonucleotide): 11.0 pg/mL
- Levels of IL-10 ([1]; 40 μM oligonucleotide): 0.8 pg/mL
- Levels of MCP-1 ([1]; 40 μM oligonucleotide): 301.9 pg/mL
- Levels of TNF-α ([1]; 40 μM oligonucleotide): 4.8 pg/mL
- Levels of IL-6 ([1]; 200 μM oligonucleotide): 22.9 pg/mL
- Levels of IL-10 ([1]; 200 μM oligonucleotide): 0.7 pg/mL
- Levels of MCP-1 ([1]; 200 μM oligonucleotide): 81.6 pg/mL
- Levels of TNF-α ([1]; 200 μM oligonucleotide): 4.8 pg/mL
- Body weight [2]: 7372 g
- Heart weight [2]: 63.6 g
- Kidney weight [2]: 44.1 g
- Liver weight [2]: 253.7 g
- Mesenteric LN weight [2]: 10.2 g
- Spleen weight [2]: 32.3 g
- Thymus weight [2]: 9.9 g
- % inhibition of Smad7 mRNA expression (compared to control), Kidney (mouse Smad7 mRNA): 23%
- % inhibition of Smad7 mRNA expression (compared to control), Liver (mouse Smad7 mRNA): 18%
- Basophils [3]: 0.01 10^3/μL
- Eosinophils [3]: 0.11 10^3/μL
- Hematocrit [3]: 52.2%
- Hemoglobin [3]: 15.2 g/dL
- Lymphocytes [3]: 78.3%
- MCH [3]: 15.0 pg
- MCHC [3]: 29.1 g/dL
- MCV [3]: 51.6 fL
- Monocytes [3]: 0.15 10^3/μL
- Neutrophils [3]: 16.0%
- RBC [3]: 10.1
- Reticulocytes [3]: 2.8%
- WBC [3]: 5.4 10^3/μL
- platelets [3]: 1033 10^3/μL
- Full length oligonucleotide, Distal colon [4]: 17 µg/g
- Full length oligonucleotide, Duodenum [4]: 17 µg/g
- Full length oligonucleotide, Ileum [4]: 18 µg/g
- Full length oligonucleotide, Kidney [4]: 1156 µg/g
- Full length oligonucleotide, Liver [4]: 220 µg/g
- Full length oligonucleotide, Proximal colon [4]: 17 µg/g
- Body weight [5]: 35 g
- Heart weight [5]: 0.17 g
- Kidneys weight [5]: 0.64 g
- Liver with gallbladder weight [5]: 1.88 g
- Spleen weight [5]: 0.11 g
- ALT [6]: 41 IU/L
- AST [6]: 77 IU/L
- Albumin [6]: 3.3 g/dL
- BUN [6]: 22 mg/dL
- Bilirubin [6]: 0.3 mg/dL
- Oligonucleotide concentration, Colon [7]: 13 μg/g tissue
- Oligonucleotide concentration, Liver [7]: 75 μg/g tissue
- ALT [8]: 38 IU/L
- AST [8]: 41 IU/L
- Albumin [8]: 3.4 g/dL
- BUN [8]: 15.7 mg/dL
- Bilirubin [8]: 0.2 mg/dL
- Creatine [8]: 0.8 mg/dL
